Laboratory results taken from US6211439A, “Herbicide resistance in plants” (MGI Pharma, Inc, priority 1995, dated 2001).
≈ marks a conversion by molar mass, not a printed value. Read-outs that look alike come from different tables or passages of the source.

Legend:
[1] = system: unselected maize callus tissue; assay: Callus culture growth inhibition, unselected tissue; format: cell-based; conditions: Zea mays, 336 h, read-out: level giving a 50% growth inhibition
Method: (§1) Therefore the effects of 214 were determined on callus growth. Quantities of tissue averaging 90 mg in size were transferred to nutrient agar maintenance media containing concentrations of 214 ranging from 0.003 to 3 mg per liter. Eight tissue pieces were placed on each plate with three plates per herbicide concentration. After 14 days growth, the tissue was weighed again.

QJ22 seedlings = assay: Seedling assay, QJ22 seedlings homozygous for the resistance trait; format: in vivo, maize; conditions: seedling assays
Excerpt: Plants were regenerated from cell line QJ22 and seed obtained as described previously for XA17, supra. […] Seeds which are uniformly homozygous for the resistance trait were obtained as described for XA17, supra.

line XA17 tissue = assay: Callus growth inhibition, resistant line XA17; format: cell-based, maize; conditions: Zea mays, 336 h, read-out: level giving a 50% growth inhibition
Method: as §1
Initially, the maximum level of 214 in which line XA17 would grow stably was determined. Stock tissue which had been maintained in the presence of 0.1 mg per liter 214 was transferred to media containing 214 levels ranging up to 30 mg per liter. Tissue was maintained for several subculture intervals and the growth rate evaluated.

control seedlings = assay: Seedling assay, control (herbicide sensitive) seedlings; format: in vivo, maize; conditions: Zea mays, read-out: concentration inhibiting shoot growth 50%
Excerpt: Seeds to be used as controls in the heritability assay were obtained from regenerated plants from an herbicide sensitive cell line of the same genetic background as line XA17. These regenerated plants were crossed with pollen obtained from a herbicide sensitive inbred B73 plant grown from seed. Seeds were harvested approximately forty days after pollination.
(§2) Twenty control seeds and ten XA17 seeds were surface sterilized with 2.6% sodium hypochlorite for twenty minutes and then washed with sterile distilled water. The seed was imbibed overnight in sterile water containing a small quantity of the fungicide, captan (N-trichloromethylthio-4-cyclohexene-1,2-dicarboximide). The mature embryos were then excised from the seed and plated scutellum side down on solid MS media without 2,4-D. Ten control seeds were plated on media containing no 214 and ten were plated in the presence of 6×10^-8M 214 which had been incorporated into the medium after autoclaving but before gelling. All ten XA17 seeds were plated in the presence of 6×10^-8 M 214. Seedlings were evaluated seven days after plating.
(§3) XA17 seeds homozygous for the resistance trait were obtained as described in Section 6.4.6. […] Assays were conducted as described in Section 6.4.5.

[2] = system: AHAS activity of line XA17 tissue; assay: AHAS activity assay, line XA17 tissue; format: biochemical, maize; conditions: for IC50: AHAS activity of line XA17 tissue, read-out: concentration inhibiting AHAS activity 50%
Method: (§4) Assays were conducted as a modification of the procedure of Smith et al. (1979, Molec. Gen. Genet. 169: 299-314). Plant cell culture material was ground with sand in a cold mortar and pestle in an equal quantity (w/v) of cell disruption media containing 0.05 M potassium phosphate (pH 7.0), 0.1 mM MgSO4, and 0.5 mM dithiothreitol. The preparation was centrifuged at 11,000×g for 20 minutes and the supernatant assayed for AHAS activity. Assays were conducted in 1 ml volumes containing 0.05 M potassium phosphate (pH 8.0), 40 mM pyruvate, 5 mM MgCl2, 0.1 mM thiamine pyrophosphate, 0.2 ml cell extract, and various concentrations of the herbicide of interest. The reaction mixtures were incubated at 30° C. for 75 minutes and the reaction terminated with the addition of 0.1 ml of 50% (v/v) H2 SO4. Following further incubation at 40° C. for 20 minutes, the acetoin formed from acetolactate by acidification was quantitated using the method of Westerfield (1945, J. Biol. Chem. 161: 495). To 0.2 ml of reaction mixture, 0.8 ml of water, 0.5 ml of 0.5% (w/v) creatine, and 0.5 ml of 5% (w/v) naphthol in 10% (w/v) NaOH was added. After mixing, solutions were incubated at room temperature for one hour. The development of pink color was quantitated by measuring light absorbance at 530 nm.
Assays were conducted to determine if acetohydroxyacid synthase extracted from line XA17 tissue was altered with respect to herbicide sensitivity. Such a change would signify that an alteration of this enzyme conferred the herbicide resistance. Assays were conducted as described supra.

[3] = system: XA17 seedlings homozygous for the herbicide resistance trait; assay: Seedling assay, XA17 seedlings homozygous for the resistance trait; format: in vivo, maize; conditions: for resistance of XA17 homozygous seedlings: vs control seedlings
Method: as §2, §3

[4] = system: Callus tissue from line QJ22; assay: Callus growth inhibition, line QJ22; format: cell-based, maize; conditions: line QJ22 vs control tissue; based on herbicide amount giving 50% reduction in growth rate
Method: (§5) Callus tissue from line QJ22 was tested also with the compound 567. The numbers represent the fold increase in herbicide concentration that can be tolerated by each of the cell lines as compared to control tissue. The values were calculated based on the amount of herbicide that gave a 50% reduction in growth rate.

[5] = system: maize cell suspension cultures; assay: Reversal of herbicide growth inhibition by leucine, valine and isoleucine; format: cell-based; conditions: 1 mM each of leucine, isoleucine, and valine; cell suspension cultures
Method: Growth inhibition studies were carried out in 125 ml flasks containing 30 ml of test media. 997 was filter sterilized and added to cooling media following autoclaving. Test media were innoculated with cells to give a settled cell volume (15 minutes without centrifugation) of 0.2 ml per 10 ml of suspension. After either six or seven days growth settled cell volumes were again quantitated.
Cells were tested to determine whether the herbicide induced inhibition of growth was the result of the decreased availability of the three branched chain amino acids. Cells were exposed to toxic levels of 997 (1×10^-6 M) in media either supplemented with 1 mM concentrations of leucine, valine, and isoleucine or with no supplementation. Culture growth rates in the absence of amino acid supplementation and in the presence of 1×10^-6 M 997 were reduced to 16% that of herbicide free cultures.
Experiments were conducted to determine the optimum supplementation levels of each of the three amino acids to obtain maximum herbicide protection and for gaining insight into the site of action of the compound.

[6] = system: acetohydroxyacid synthase (AHAS); assay: AHAS activity assay, extract of maize cell cultures / control tissue; format: biochemical
Method: as §4, with “Plant” for “Assays were conducted as a modification of the procedure of Smith et al. (1979, Molec. Gen. Genet. 169: 299-314). Plant”, “Following further incubation at 40° C. for 20 minutes, the acetoin formed from acetolactate by acidification was quantitated using the method of Westerfield (1945, J. Biol. Chem. 161: 495).” left out, “hour.” for “hour. The development of pink color was quantitated by measuring light absorbance at 530 nm.”

[7] = system: Callus tissue from line UV18; assay: Callus growth inhibition, line UV18; format: cell-based, maize; conditions: line UV18 vs control tissue; based on herbicide amount giving 50% reduction in growth rate
Method: The UV18 cell line was first observed after 25 weeks of selection comprising 9 subculture intervals. The tissue in the selection procedure had been exposed to 0.1 mg per liter 214 for four subculture intervals followed by exposure to 0.3 mg per liter 214 for four subculture intervals. UV18 was identified during the ninth subculture as a rapidly growing sector of tissue with good morphology.
as §5

Tomato callus lines = conditions: callus cultures initiated from regenerated plants (Thomas and Pratt, 1983); cited from earlier work

Structure (SMILES) | IC50 [1] [µg/mL] | tolerance of QJ22 homozygous seedlings compared to control seedlings (QJ22 seedlings) | IC50 (line XA17 tissue) [µg/mL] | IC50 (control seedlings) [µM] | IC50 [2] [µM] | IC50 ([3]; Zea mays, read-out: concentration inhibiting shoot growth 50%) [µM] | resistance of XA17 homozygous seedlings [3] | Callus Growth Fold Increase in Tolerance [4] | effect of media supplementation with leucine, isoleucine, valine on growth inhibition [5] | effect on AHAS enzyme activity ([6]; AHAS activity from maize cell cultures) | IC50 ([6]; AHAS activity of control tissue, read-out: concentration inhibiting AHAS activity 50%) [µM] | Callus Growth Fold Increase in Tolerance [7] [fold] | change in herbicide sensitivity of AHAS, line XA17 vs control, on a concentration basis ([2]; maize, ahas, line xa17) [fold] | IC50 (line XA17 tissue; line XA17, two week growth inhibition study) [µg/mL] | IC50 (control seedlings; control seedlings) [µM] | shoot growth inhibition at the highest concentration tested ([3]; 3×10^-6 M, seedlings homozygous for the resistance trait) | increase over wild-type in resistance (Tomato callus lines) [fold]
COc1nc(C)nc(NC(=O)NS(=O)(=O)c2ccccc2Cl)n1 [chlorsulfuron, 2-chloro-N-[(4-methoxy-6-methyl-1,3,5-triazin-2-yl)aminocarbonyl]benzenesulfonamide] | 0.01 (≈ 0.028 µM) | no tolerance | 10 (≈ 28 µM) | 0.01 | 0.3 | 0.1 | 10 fold | – | – | – | – | – | – | – | – | – | –
CCc1cnc(C2=NC(=O)C(C)(C(C)C)N2)c(C(=O)O)c1 (stereo not drawn) [compound 499, 5-ethyl,2-(5-isopropyl-5-methyl-4-oxo-2-imidazolin-2-yl)nicotinic acid] | 0.1 to 0.3 (≈ 0.346 to 1.04 µM) | 30 fold | > 30 | – | 3000 to 30000 | – | – | 30-50 fold | reversed the growth inhibitory effects | inhibited the enzyme activity | 1 to 10 | 100 | ≥ 1000 | – | – | – | –
Cc1cc(C)n2nc(S(=O)(=O)Nc3c(Cl)cccc3Cl)nc2n1 [compound 567, 5,7-dimethyl-N-(2,6-dichlorophenyl)-1,2,4-triazolo[1,5-a)pyrimidine-2-sulfonamide] | 0.1 to 0.3 (≈ 0.269 to 0.806 µM) | no tolerance | – | – | – | – | at least 30 fold | – | – | – | – | – | – | > 30 | 0.1 | no inhibition | –
C[n+]1ccc(-c2cc[n+](C)cc2)cc1 [paraquat] | – | – | – | – | – | – | – | – | – | – | – | – | – | – | – | – | ≥ 30
